In article PMC10017042 (Science Advances, 2023):
Values joined by “and” are separate entries in the source; they are usually repeats but may differ in a detail not shown here. Equal values may be shown once. Read-outs that look alike come from different tables or passages of the source.

Legend:
[1] = tested on: BAF complex; assay: BAF complex target gene expression (IL-10, SOCS3, CBX7; control B-ACT) by RT-qPCR in participants; assay type: in vivo, human
Text: We reasoned that the effect on the expression of these gene targets at later time points (days 14 and 42) would be less useful as specific biomarker of BAF complex inhibition due to treatment interruptions and potential induction via other pathways. […] These findings are consistent with, and might be the consequence of, the generally lower plasma pyrimethamine Ctrough in participants that received the combined intervention regimen compared to those that received solely pyrimethamine.
RT-qPCR reactions were conducted using GoTaq qPCR Master Mix (Promega) following the manufacturer’s protocol. The following thermal cycling protocol was used for amplification: 3 min at 95°C, followed by 40 cycles of 95°C for 10 s and 60°C for 30 s. Expression data were calculated using the 2^−∆∆Ct methodology ([73]). Cyclophilin A was used as a housekeeping gene for the analysis. The list of primers is available in table S9.

[2] = tested on: HIV-1; settings: for Change in inducible reservoir size: day 0 versus day 42; for TILDA reservoir, cells with multiply spliced HIV-RNA detectable per million CD4+ T-cells, >1year / TILDA reservoir, cells with multiply spliced HIV-RNA detectable per million CD4+ T-cells, Day 42 / TILDA reservoir, cells with multiply spliced HIV-RNA detectable per million CD4+ T-cells, Day 0, 0 hour: individual participants, one value each; for TILDA reservoir, cells with multiply spliced HIV-RNA detectable per million CD4+ T-cells, >1year: >1 year after end of treatment; for TILDA reservoir, cells with multiply spliced HIV-RNA detectable per million CD4+ T-cells, Day 0, 0 hour: pretreatment baseline
Method: Here, the measurement from the cells obtained >1 year after the last visit was used.
The frequency of CD4^+ T cells expressing MS HIV-1 RNA was determined using TILDA with some modifications to the protocol described previously by our group ([68]). Briefly, total CD4^+ T cells were isolated from PBMCs by negative magnetic selection using EasySep CD4^+ Human CD4^+ T Cell Enrichment kit ([…] Technologies). Following isolation, 1.5 × 10^6 CD4^+ T cells/ml were rested in complete RPMI 1640 for 5 to 8 hours before 12 hours of stimulation with PMA (100 ng/ml) and ionomycin (1 μg/ml) (both from Sigma-Aldrich). After stimulation, CD4^+ T cells were washed and resuspended in serum-free RPMI 1640. Cells were counted and serially diluted accordingly: 1.8 × 10^6 cells/ml, 9 × 10^5 cells/ml, 3 × 10^5 cells/ml, and 1 × 10^5 cells/m. […] In the preamplification reaction, 10 μl of the cell suspension from each dilution was dispensed into 24 to 48 wells of a 96-well plate containing 2 μl of one-step RT-PCR enzyme (Qiagen), 10 μl of 5× one-step RT-PCR buffer (Qiagen), 10 μl of Triton X-100 (0.3%), 0.25 μl of RNAsin (40 U/μl), 2 μl of dNTPs (10 mM each), 1 μl of tat1.4 forward primer (20 μM) and rev reverse primer (20 μM) (as published), and nuclease-free water to a final reaction volume of 50 μl. The one-step RT-PCR was run using the following thermocycling conditions: 50°C for 30 min, 95°C for 15 min, followed by 25 cycles of 95°C for 1 min, 55°C for 1 min, and 72°C for 2 min, and a final extension at 72°C for 5 min. After preamplification, 2 μl of the products was used as input for the real-time PCR to detect tat/rev MS HIV-1 RNA in a final reaction volume of 20 μl, which consisted of 5 μl of 4× TaqMan Fast Advanced Master mix (Thermo Fisher Scientific), 0.4 μl of tat2.0 forward primer, rev reverse primer (each at 20 μM), and MS tat/rev probe (5 μM). The real-time PCR was performed using the following program: 50°C for 5 min, 95°C for 20 s, followed by 45 cycles of 95°C for 3 s and 60°C for 30 s. Positive wells at each dilution were recorded and used to determine the frequency of cells expressing tat/rev MS HIV-1 RNA by the maximum likelihood method.

[3] = Plasma drug concentrations (pyrimethamine UPLC-MS/MS, VPA assay, unbound dolutegravir) in trial participants; assay type: in vivo, human; settings: for Drug detectable in plasma: day 42 (28 days after end of treatment); for concentration at 6 h / concentration at 14 day: human, plasma, oral; for concentration at 14 day: day 14; for PLWH with VPA plasma levels exceeding the therapeutic window (up to 100 mg/liter): day 7
Method: Self-reported adherence was assessed at each study visit, and empty pill strips were collected after the 2-week intervention phase. […] A gradient (0.3 ml/min) with two eluents was used (A: 2 mM ammonium acetate + 0.1% formic acid in water; B: 2 mM ammonium acetate + 0.1% formic acid in methanol). […] For measurement validation, we performed linearity, correctness, LOD and lower LOQ, repeatability, reproducibility, measurement uncertainty, robustness, and carryover. […] Unbound dolutegravir plasma concentrations were quantified with a validated UPLC-MS/MS bioquantification method as previously described ([61]).

[4] = parameters: method as in PMID 22837004; settings: assumed for the sampling design; fasted first dose; cited from earlier work
[5] = day 0, 6 hours after first dose relative to pretreatment, arm median
[6] = individual participants, one value each, listed as PYR

## CCc1nc(N)nc(N)c1-c1ccc(Cl)cc1 [pyrimethamine]
[1]; control gene, individual participants, one value each, listed as PYR
  Fold-induction in B-ACTIN gene expression at Day 0, 6 hours relative to Day 0, pretreatment: 1.29 and 1.51 and 0.82 and 0.94 (2×) and 0.86 and 1.04
[1]; [5]
  Median fold increase in CBX7 gene expression: 1.68 fold
  Median fold increase in IL-10 gene expression: 2.55 fold
  Median fold increase in SOCS3 gene expression: 2.53 fold
[1]; [6]
  Fold-induction in CBX7 gene expression at Day 0, 6 hours relative to Day 0, pretreatment: 1.68 and 1.12 and 12.42 and 4.23 and 2.02 and 1.25 and 1.03
  Fold-induction in IL-10 gene expression at Day 0, 6 hours relative to Day 0, pretreatment: 2.24 and 2.74 and 1.48 and 1.74 and 6.66 and 6.4 and 2.54
  Fold-induction in SOCS3 gene expression at Day 0, 6 hours relative to Day 0, pretreatment: 2.52 and 2.27 and 0.60 and 4.59 and 5.35 and 1.14 and 3.27
[2]; after treatment (day 42)
  Median inducible reservoir (TILDA): 10.0 cells per million CD4+ T cells
[2]; before treatment (day 0)
  Median inducible reservoir (TILDA): 15.1 cells per million CD4+ T cells
[2]
  Change in inducible reservoir size: do not indicate a significant change
[2]; listed as PYR
  TILDA reservoir, cells with multiply spliced HIV-RNA detectable per million CD4+ T-cells, >1year: 19.3 per million CD4+ T-cells and 91.8 per million CD4+ T-cells and 13.9 per million CD4+ T-cells and 6.1 per million CD4+ T-cells and 22.2 per million CD4+ T-cells and 15.2 per million CD4+ T-cells
  TILDA reservoir, cells with multiply spliced HIV-RNA detectable per million CD4+ T-cells, Day 42: 8.8 per million CD4+ T-cells and 122.8 per million CD4+ T-cells and 9.0 per million CD4+ T-cells and 1.6 per million CD4+ T-cells and 22.9 per million CD4+ T-cells
  TILDA reservoir, cells with multiply spliced HIV-RNA detectable per million CD4+ T-cells, Day 0, 0 hour: 2.7 per million CD4+ T-cells and 109.8 per million CD4+ T-cells and 16.9 per million CD4+ T-cells and 11.5 per million CD4+ T-cells and 15.1 per million CD4+ T-cells and 20.1 per million CD4+ T-cells and 2.8 per million CD4+ T-cells
[3]; PLWH on efavirenz- or nevirapine-containing cART
  Median plasma concentration of pyrimethamine with CYP3A inducers: did not have lower
[3]
  Drug detectable in plasma: No pyrimethamine or VPA was detectable
[3]; 200 mg, Median plasma total pyrimethamine concentration, 6 hours after first dose (200 mg), pyrimethamine alone, seven participants
  concentration at 6 h: 1.63 µg/mL
[3]; 200 mg, Median pyrimethamine Ctrough by integrase inhibitor exposure, 6 hours, group printed first of 'versus' pair
  concentration at 6 h: 1.3 µg/mL
[3]; 200 mg, Median pyrimethamine Ctrough by integrase inhibitor exposure, 6 hours, group printed second of 'versus' pair
  concentration at 6 h: 1.4 µg/mL
[3]; Median plasma total pyrimethamine concentration, 6 hours after first dose, combination arm with VPA
  concentration at 6 h: 1.16 µg/mL
[3]; Median pyrimethamine Ctrough by integrase inhibitor exposure, uninterrupted pyrimethamine, group printed first
  concentration at 14 day: 2.8 µg/mL
[3]; Median pyrimethamine Ctrough by integrase inhibitor exposure, uninterrupted pyrimethamine, group printed second
  concentration at 14 day: 3.2 µg/mL
[3]; Median pyrimethamine Ctrough, combination arm with VPA, four PLWH with uninterrupted exposure
  concentration at 14 day: 1.99 µg/mL
[3]; Median pyrimethamine Ctrough, monotherapy arm, six PLWH with uninterrupted exposure
  concentration at 14 day: 3.48 µg/mL
[3]; Pyrimethamine plasma level, individual, LUNA-21 (combination arm), stopped treatment at day 10
  concentration at 14 day: 2.52 µg/mL
[4]
  Tmax: approximately 4 hours

## CCCC(CCC)C(=O)O [valproic acid]
[1]; day 0, 6 hours after first dose relative to pretreatment
  mRNA levels of BAF target genes (IL-10, SOCS3, CBX7): no increase
[2]
  Change in inducible reservoir size: remained stable
[2]; listed as VPA
  TILDA reservoir, cells with multiply spliced HIV-RNA detectable per million CD4+ T-cells, >1year: 2.5 per million CD4+ T-cells and 25.5 per million CD4+ T-cells and 286.2 per million CD4+ T-cells and 2.2 per million CD4+ T-cells and 19.0 per million CD4+ T-cells
  TILDA reservoir, cells with multiply spliced HIV-RNA detectable per million CD4+ T-cells, Day 42: 26.0 per million CD4+ T-cells and 12.7 per million CD4+ T-cells and 1.2 per million CD4+ T-cells and 12.9 per million CD4+ T-cells
  TILDA reservoir, cells with multiply spliced HIV-RNA detectable per million CD4+ T-cells, Day 0, 0 hour: 12.5 per million CD4+ T-cells and 100.7 per million CD4+ T-cells and 326.5 per million CD4+ T-cells and 2.5 per million CD4+ T-cells and 17.1 per million CD4+ T-cells and 3.4 per million CD4+ T-cells
[3]; those who continued VPA
  PLWH with VPA plasma levels exceeding the therapeutic window (up to 100 mg/liter): three of nine
[3]; those whose therapy was adjusted for toxicity while receiving VPA
  PLWH with VPA plasma levels exceeding the therapeutic window (up to 100 mg/liter): three of the five
[3]
  Drug detectable in plasma: No pyrimethamine or VPA was detectable
[3]; 30 mg/kg per day (divided into two equal doses), 6 hours, VPA monotherapy, read-out: Median plasma total VPA concentration
  concentration at 6 h: 47.3 µg/mL
[3]; 30 mg/kg per day, VPA monotherapy, six PLWH with uninterrupted exposure, read-out: Median VPA Ctrough
  concentration at 14 day: 84.8 µg/mL
[3]; 6 hours, combination treatment with pyrimethamine, read-out: Median plasma total VPA concentration
  concentration at 6 h: 47.4 µg/mL
[3]; combination treatment, four PLWH with uninterrupted exposure, read-out: Median VPA Ctrough
  concentration at 14 day: 113 µg/mL
[4]
  Tmax: approximately 4 hours
